Source: patent US6479435B1, “Diaryl ethers and processes for their preparation and herbicidal and desiccant compositions containing them” (ISK Americas Incorporated, priority 1997, dated 2002)

Experiments:
Assay type in all cases: in vivo
[1] = test system: upland rice (Oryza sp., var.Tebonnet, RICE); test: Pre-emerge greenhouse test, crop damage rating; conditions: 1000 g ai/ha, 14 days after application, rating scale 0-100
Source text: (§1) A standard greenhouse herbicide activity screening system was used to evaluate the herbicidal efficacy and crop safety of these test compounds. Six broadleaf weed species including redroot pigweed (Amaranthus retroflexus, AMARE), velvetleaf (Abutilon theophrasti, ABUTH), sicklepod (Cassia obtusifolia, CASOB), ivyleaf morningglory (Ipomoea hederacea, IPOHE), lambsquarters (Chenopodium album, CHEAL) and common ragweed (Ambrosia artemisiifolia L., AMBEL) were used as test species. Four grass weed species including green foxtail (Setaria viridis, SETVI), barnyardgrass (Echinochloa crusgalli, ECHCG), Johnsongrass (Sorghum halepense, SORHA), and large crabgrass (Digitaria sanguinalis, DIGSA) were also used. In addition, three crop species, field corn (Zea mays L., var. Dekalb 535, CORN), soybean (Glycine max L., var. Pella 86, SOY), and upland rice (Oryza sp., var.Tebonnet, RICE) were included.
(§2) All plants were grown in 10 cm square plastic pots which were filled with a sandy loam soil mix. For preemerge tests, seeds were planted one day prior to application of the test compounds. Immediately after application, test units of the pre-emerge applications were watered at the soil surface to incorporate the test materials. Subsequently, these test units were bottom-watered.
(§3) All test compounds were dissolved in acetone and applied to the test units in a volume of 187 l/ha. Test materials were applied at rates ranging from 125 g ai/ha to 1000 g ai/ha using a track sprayer equipped with a TJ8001E even flow flat fan spray nozzle. Plants were arranged on a shelf so that the top of the canopy (post-emerge) or top of the soil surface (pre-emerge) was 40-45 cm below the nozzle. Pressurized air was used to force the test solution through the nozzle as it was mechanically advanced (via electrically driven chain drive) over the top of all test plants/pots. This application simulates a typical commercial field herbicide application.
(§4) At 14 days after application of the test materials, phytotoxicity ratings were recorded. A rating scale of 0-100 was used as previously described in Research Methods in Weed Science, 2nd edition, B. Truelove, Ed., Southern Weed Science Society, Auburn University, Auburn, Ala., 1977. Briefly, “0” corresponds to no damage and “100” corresponds to complete death of all plants in the test unit. This scale was used both to determine efficacy against weed species and damage to crop species. Herbicide activity data for various compounds of this invention, which are shown by compound number in Tables 1-9, are shown in Tables 13 and 14.

[2] = test system: field corn (Zea mays L., var. Dekalb 535, CORN); test: Pre-emerge greenhouse test, crop damage rating; conditions: 1000 g ai/ha, 14 days after application, rating scale 0-100
Source text: as §1, §2, §3, §4

[3] = test system: barnyardgrass (Echinochloa crusgalli, ECHCG); test: Pre-emerge greenhouse herbicide test, phytotoxicity rating; conditions: 1000 g ai/ha, 14 days after application, rating scale 0-100
Source text: as §1, §2, §3, §4

[4] = test system: redroot pigweed (Amaranthus retroflexus, AMARE); test: as above; conditions: 1000 g ai/ha, 14 days after application, rating scale 0-100
Source text: as §1, §2, §3, §4

[5] = test system: lambsquarters (Chenopodium album, CHEAL); test: as above; conditions: 1000 g ai/ha, 14 days after application, rating scale 0-100
Source text: as §1, §2, §3, §4

[6] = test system: sicklepod (Cassia obtusifolia, CASOB); test: as above; conditions: 1000 g ai/ha, 14 days after application, rating scale 0-100
Source text: as §1, §2, §3, §4

[7] = test system: Johnsongrass (Sorghum halepense, SORHA); test: as above; conditions: 1000 g ai/ha, 14 days after application, rating scale 0-100
Source text: as §1, §2, §3, §4

[8] = test system: ivyleaf morningglory (Ipomoea hederacea, IPOHE); test: as above; conditions: 1000 g ai/ha, 14 days after application, rating scale 0-100
Source text: as §1, §2, §3, §4

[9] = test system: large crabgrass (Digitaria sanguinalis, DIGSA); test: as above; conditions: 1000 g ai/ha, 14 days after application, rating scale 0-100
Source text: as §1, §2, §3, §4

[10] = test system: green foxtail (Setaria viridis, SETVI); test: as above; conditions: 1000 g ai/ha, 14 days after application, rating scale 0-100
Source text: as §1, §2, §3, §4

[11] = test system: velvetleaf (Abutilon theophrasti, ABUTH); test: as above; conditions: 1000 g ai/ha, 14 days after application, rating scale 0-100
Source text: as §1, §2, §3, §4

[12] = test system: upland rice (Oryza sp., var.Tebonnet, RICE); test: Post-emerge greenhouse test, crop damage rating; conditions: 1000 g al/ha, 14 days after application
Source text: as §1, §3
(§5) In the post-emerge test, a commercial non-ionic surfactant was also included (0.25% v/v) to enhance wetting of the leaf surfaces Qf target plants at rates ranging from 63 g ai/ha to 1000 g ai/ha. For post-emerge tests, seeds were planted 8-21 days prior to the test to allow emergence and good foliage development prior to application of the test substances. At the time of the post-emerge application, plants of all species were usually at the 2-3 leaf stage of development. Post-emerge test units were always bottom-watered.
as §4

[13] = test system: field corn (Zea mays L., var. Dekalb 535, CORN); test: Post-emerge greenhouse test, crop damage rating; conditions: 1000 g al/ha, 14 days after application
Source text: as §1, §3, §5, §4

[14] = test system: soybean (Glycine max L., var. Pella 86, SOY); test: Pre-emerge greenhouse test, crop damage rating; conditions: 1000 g ai/ha, 14 days after application, rating scale 0-100
Source text: as §1, §2, §3, §4

[15] = test system: soybean (Glycine max L., var. Pella 86, SOY); test: Post-emerge greenhouse test, crop damage rating; conditions: 1000 g al/ha, 14 days after application
Source text: as §1, §3, §5, §4

[16] = test system: barnyardgrass (Echinochloa crusgalli, ECHCG); test: Post-emerge greenhouse herbicide test, phytotoxicity rating; conditions: 1000 g al/ha, 14 days after application
Source text: as §1, §3, §5, §4

[17] = test system: redroot pigweed (Amaranthus retroflexus, AMARE); test: as above; conditions: 1000 g al/ha, 14 days after application
Source text: as §1, §3, §5, §4

[18] = test system: lambsquarters (Chenopodium album, CHEAL); test: as above; conditions: 1000 g al/ha, 14 days after application
Source text: as §1, §3, §5, §4

[19] = test system: sicklepod (Cassia obtusifolia, CASOB); test: as above; conditions: 1000 g al/ha, 14 days after application
Source text: as §1, §3, §5, §4

[20] = test system: Johnsongrass (Sorghum halepense, SORHA); test: as above; conditions: 1000 g al/ha, 14 days after application
Source text: as §1, §3, §5, §4

[21] = test system: ivyleaf morningglory (Ipomoea hederacea, IPOHE); test: as above; conditions: 1000 g al/ha, 14 days after application
Source text: as §1, §3, §5, §4

[22] = test system: large crabgrass (Digitaria sanguinalis, DIGSA); test: as above; conditions: 1000 g al/ha, 14 days after application
Source text: as §1, §3, §5, §4

[23] = test system: green foxtail (Setaria viridis, SETVI); test: as above; conditions: 1000 g al/ha, 14 days after application
Source text: as §1, §3, §5, §4

[24] = test system: velvetleaf (Abutilon theophrasti, ABUTH); test: as above; conditions: 1000 g al/ha, 14 days after application
Source text: as §1, §3, §5, §4

In the case of `O=c1cc2n(c(=O)n1-c1cc(Oc3ccccc3[N+](=O)[O-])c(Cl)cc1F)CCC2` [Compound 5-1], the “crop damage rating RICE” value [1] is reported as 70, the “crop damage rating CORN” value [2] is reported as 5 and the “phytotoxicity rating ECHCG” value [3] is reported as 95. The “phytotoxicity rating AMARE” value [4] was 99, the “phytotoxicity rating CHEAL” value [5] was 100 and the “phytotoxicity rating CASOB” value [6] was 40. For the same compound, the “phytotoxicity rating SORHA” value [7] was 90, the “phytotoxicity rating IPOHE” value [8] was 70 and the “phytotoxicity rating DIGSA” value [9] was 100. For the same compound, the “phytotoxicity rating SETVI” value [10] was 99, the “phytotoxicity rating ABUTH” value [11] was 100 and the “RICE crop damage rating (0-100)” value [12] was 10. The “CORN crop damage rating (0-100)” value [13] was 0, the “crop damage rating SOY” value [14] was 55 and the “SOY crop damage rating (0-100)” value [15] was 40. For the same compound, the “ECHCG phytotoxicity rating (0-100)” value [16] was 30, the “AMARE phytotoxicity rating (0-100)” value [17] was 30 and the “CHEAL phytotoxicity rating (0-100)” value [18] was 80. For the same compound, the “CASOB phytotoxicity rating (0-100)” value [19] was 10, the “SORHA phytotoxicity rating (0-100)” value [20] was 10 and the “IPOHE phytotoxicity rating (0-100)” value [21] was 90. The “DIGSA phytotoxicity rating (0-100)” value [22] was 0, the “SETVI phytotoxicity rating (0-100)” value [23] was 20 and the “ABUTH phytotoxicity rating (0-100)” value [24] was 100.
In the case of `Nc1ccc(Oc2cc(-n3c(=O)cc4n(c3=O)CCC4)c(F)cc2Cl)cc1` [Compound 5-3], the “crop damage rating RICE” value [1] is reported as 20, the “crop damage rating CORN” value [2] is reported as 0 and the “phytotoxicity rating ECHCG” value [3] is reported as 0. The “phytotoxicity rating AMARE” value [4] was 100, the “phytotoxicity rating CHEAL” value [5] was 0 and the “phytotoxicity rating CASOB” value [6] was 10. For the same compound, the “phytotoxicity rating SORHA” value [7] was 40, the “phytotoxicity rating IPOHE” value [8] was 0 and the “phytotoxicity rating DIGSA” value [9] was 70. For the same compound, the “phytotoxicity rating SETVI” value [10] was 20, the “phytotoxicity rating ABUTH” value [11] was 99 and the “RICE crop damage rating (0-100)” value [12] was 0. For the same compound, the “CORN crop damage rating (0-100)” value [13] was 0, the “crop damage rating SOY” value [14] was 40 and the “SOY crop damage rating (0-100)” value [15] was 0. For the same compound, the “ECHCG phytotoxicity rating (0-100)” value [16] was 0, the “AMARE phytotoxicity rating (0-100)” value [17] was 0 and the “CHEAL phytotoxicity rating (0-100)” value [18] was 0. The “CASOB phytotoxicity rating (0-100)” value [19] was 0, the “SORHA phytotoxicity rating (0-100)” value [20] was 0 and the “IPOHE phytotoxicity rating (0-100)” value [21] was 0. For the same compound, the “DIGSA phytotoxicity rating (0-100)” value [22] was 0, the “SETVI phytotoxicity rating (0-100)” value [23] was 0 and the “ABUTH phytotoxicity rating (0-100)” value [24] was 0.
With `N#Cc1cccnc1Oc1cc(-n2c(=O)cc3n(c2=O)CCC3)c(F)cc1Cl` [Compound 5-9] the “crop damage rating RICE” value [1] was 50, the “crop damage rating CORN” value [2] was 0 and the “phytotoxicity rating ECHCG” value [3] was 0. The “phytotoxicity rating AMARE” value [4] was 80, the “phytotoxicity rating CHEAL” value [5] was 100 and the “phytotoxicity rating CASOB” value [6] was 30. The “phytotoxicity rating SORHA” value [7] was 90, the “phytotoxicity rating IPOHE” value [8] was 100 and the “phytotoxicity rating DIGSA” value [9] was 90. For the same compound, the “phytotoxicity rating SETVI” value [10] was 90, the “phytotoxicity rating ABUTH” value [11] was 100 and the “RICE crop damage rating (0-100)” value [12] was 25. For the same compound, the “CORN crop damage rating (0-100)” value [13] was 5, the “crop damage rating SOY” value [14] was 50 and the “SOY crop damage rating (0-100)” value [15] was 30. The “ECHCG phytotoxicity rating (0-100)” value [16] was 0, the “AMARE phytotoxicity rating (0-100)” value [17] was 50 and the “CHEAL phytotoxicity rating (0-100)” value [18] was 70. The “CASOB phytotoxicity rating (0-100)” value [19] was 30, the “SORHA phytotoxicity rating (0-100)” value [20] was 0 and the “IPOHE phytotoxicity rating (0-100)” value [21] was 90. For the same compound, the “DIGSA phytotoxicity rating (0-100)” value [22] was 0, the “SETVI phytotoxicity rating (0-100)” value [23] was 10 and the “ABUTH phytotoxicity rating (0-100)” value [24] was 100.
